Experiments:
Type in all cases: in vivo
[1] = test system: Echinochloa crusgalli; assay: Post-emergence test experiment, Echinochloa crusgalli; details: for Activity level (growth inhibition rate), Echinochloa crusgalli: 1000 g a.i./ha, 3 weeks in greenhouse, fresh weight inhibition; for inhibition at 200 g/ha: Echinochloa crus-galli, 504 h, read-out: Echinochloa crusgalli, activity level (growth inhibition rate); for inhibition at 200 g/ha / Echinochloa crusgalli, activity level (growth inhibition rate): 200 g a.i./ha, 3 weeks, weed resistant to ALS inhibitor and ACCe herbicides
How it was run: (§1)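 Seeds sown under 0.5-2 cm soil; sprayed post-emergence at 2-3 leaves with acetone/tween-80 solution plus 1.5 L/ha methyl oleate EC; greenhouse 3 wk; % fresh weight inhibition.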

[2] = test system: Digitaria sanguinalis; assay: Post-emergence test experiment, Digitaria sanguinalis; details: for Activity level (growth inhibition rate), Digitaria sanguinalis: 1000 g a.i./ha, 3 weeks in greenhouse, fresh weight inhibition; for inhibition at 200 g/ha: Digitaria sanguinalis, 504 h, read-out: Digitaria sanguinalis, activity level (growth inhibition rate); for inhibition at 200 g/ha / Digitaria sanguinalis, activity level (growth inhibition rate): 200 g a.i./ha, 3 weeks, weed resistant to cyhalofop-butyl
How it was run: as §1

[3] = test system: Semen Euphorbiae Lathyridis; assay: Post-emergence test experiment, Semen Euphorbiae Lathyridis; details: 200 g a.i./ha, 3 weeks, weed resistant to cyhalofop-butyl; for inhibition at 200 g/ha: 504 h, read-out: Semen Euphorbiae Lathyridis, activity level (growth inhibition rate)
How it was run: as §1

[4] = test system: rice; assay: Post-emergence test experiment, rice (crop selectivity); details: 200 g a.i./ha, 3 weeks
Procedure: The above described growth inhibition rate is fresh weight inhibition rate.
Post-emergence test experiment: Monocotyledonous and dicotyledonous weed seeds and main crop seeds (i. e. wheat, corn, rice, soybean, cotton, oilseed, millet and sorghum.) were put into a plastic pot loaded with soil. Then covered with 0.5-2 cm soil, the seeds were allowed to grow in good greenhouse environment. The test plants were treated at 2-3 leaf stage 2 weeks after sowing. The test compounds of the invention were dissolved with acetone respectively, then added with tween-80, and using 1.5 liters per hectare of an emulsible concentrate of methyl oleate as a synergist, and diluted by certain amount of water to certain concentration. The solution was sprayed to the plants with a sprayer. Then the plants were cultured for 3 weeks in the greenhouse, and the experiment result of weed controlling effect was listed in tables 4-5.

[5] = test system: Monocotyledonous and dicotyledonous weed seeds and main crop seeds; assay: Post-emergence test experiment, other weeds and crops (Table 4, 1000 g a.i./ha); details: 3 weeks in greenhouse, fresh weight inhibition
How it was run: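 Growth inhibition is scored on fresh weight. Spray solutions were made in acetone with tween-80, diluted in water, plus 1.5 L/ha methyl oleate emulsible concentrate. Plants from greenhouse-grown weed and crop seeds were treated post-emergence at 2-3 leaves, 2 weeks after sowing.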

[6] = test system: rice (japonica rice); assay: Transplanted rice safety evaluation; details: transplanted 3-leaf japonica rice, 1000 g a.i./ha, 21 days after treatment
Procedure: In addition, the rice field soil that loaded into the 1/1,000,000 ha pot was leveled to keep water storage at 3-4 cm depth. The 3-leaf stage rice (japonica rice) was transplanted at 3 cm of transplanting depth the next day. The compound of the present invention was treated by the same way after 5 days of transplantation.
(§2) The fertility condition of Monochoria vaginalis 14 days and rice 21 days after the treatment of the compound of the invention with the naked eye.

[7] = test system: Monochoria vaginalis; assay: Weed control effect evaluation in rice field; details: paddy pot, 0.5 leaf stage, 14 days, weed resistant to pyrazosulfuron-ethyl and penoxsulam
Procedure: Rice field soil was loaded into a 1/1,000,000 ha pot. The seeds of Monochoria vaginalis were sowed and gently covered with soil, then left to stand still in greenhouse in the state of 0.5-1 cm of water storage. It was kept at 3-4 cm of water storage thereafter. The weeds were treated by dripping the WP or SC water diluents prepared according to the common preparation method of the compounds of the present invention with pipette homogeneously to achieve specified effective amount when Monochoria vaginalis reached 0.5 leaf stage.
as §2

| Compound | Activity level (growth inhibition rate), Echinochloa crusgalli [1] | inhibition at 200 g/ha [1] [%] | Activity level (growth inhibition rate), Digitaria sanguinalis [2] | inhibition at 200 g/ha [2] [%] | inhibition at 200 g/ha [3] [%] | rice, activity level (growth inhibition rate) [4] | Activity level (growth inhibition rate), Abutilon theophrasti Medic. [5] | Activity level (growth inhibition rate), Galium aparine [5] | Activity level (growth inhibition rate), Monochoria Vaginalis [5] | rice, safety level 0-5 [6] | Monochoria Vaginalis, activity level 0-5 ([7]; 1000 g a.i./ha) | Echinochloa crusgalli, activity level (growth inhibition rate) [1] | Digitaria sanguinalis, activity level (growth inhibition rate) [2] | Semen Euphorbiae Lathyridis, activity level (growth inhibition rate) [3] | Monochoria Vaginalis, activity level 0-5 ([7]; 50 g a.i./ha) |
| --- | --- | --- | --- | --- | --- | --- | --- | --- | --- | --- | --- | --- | --- | --- | --- |
| COC(=O)[C@@H](C)Oc1nc(F)c(Cl)c(N)c1Cl [Compound 2-69] | 5 (Level 5: the growth inhibition rate is greater than 85%) | > 85 | 5 (Level 5: the growth inhibition rate is greater than 85%) | > 85 | > 85 | 0 (Level 0: the growth inhibition rate is less than 5%) | 5 (Level 5: the growth inhibition rate is greater than 85%) | 5 (Level 5: the growth inhibition rate is greater than 85%) | 5 (Level 5: the growth inhibition rate is greater than 85%) | 0 (Level 0: the growth inhibition rate is less than 5%) | 5 (Level 5: the growth inhibition rate is greater than 85%) | – | – | – | – |
| C[C@@H](Oc1nc(F)c(Cl)c(N)c1Cl)C(=O)OCc1ccco1 [Compound 2-348] | 5 (Level 5: the growth inhibition rate is greater than 85%) | – | 5 (Level 5: the growth inhibition rate is greater than 85%) | – | – | 0 (Level 0: the growth inhibition rate is less than 5%) | 5 (Level 5: the growth inhibition rate is greater than 85%) | 5 (Level 5: the growth inhibition rate is greater than 85%) | 5 (Level 5: the growth inhibition rate is greater than 85%) | 0 (Level 0: the growth inhibition rate is less than 5%) | 5 (Level 5: the growth inhibition rate is greater than 85%) | 5 (Level 5: the growth inhibition rate is greater than 85%) | 5 (Level 5: the growth inhibition rate is greater than 85%) | 5 (Level 5: the growth inhibition rate is greater than 85%) | – |
| CCOC(=O)COC(=O)C(C)Oc1nc(F)c(Cl)c(N)c1Cl (stereo not shown) [Compound 2-294] | 5 (Level 5: the growth inhibition rate is greater than 85%) | – | 5 (Level 5: the growth inhibition rate is greater than 85%) | – | – | 0 (Level 0: the growth inhibition rate is less than 5%) | 5 (Level 5: the growth inhibition rate is greater than 85%) | 5 (Level 5: the growth inhibition rate is greater than 85%) | 5 (Level 5: the growth inhibition rate is greater than 85%) | 0 (Level 0: the growth inhibition rate is less than 5%) | 5 (Level 5: the growth inhibition rate is greater than 85%) | 5 (Level 5: the growth inhibition rate is greater than 85%) | 5 (Level 5: the growth inhibition rate is greater than 85%) | 5 (Level 5: the growth inhibition rate is greater than 85%) | – |
| C[C@@H](Oc1nc(F)c(Cl)c(N)c1Cl)C(=O)SCc1ccc(Cl)cc1 [Compound 2-319] | 5 (Level 5: the growth inhibition rate is greater than 85%) | > 85 | 5 (Level 5: the growth inhibition rate is greater than 85%) | > 85 | > 85 | 0 (Level 0: the growth inhibition rate is less than 5%) | 5 (Level 5: the growth inhibition rate is greater than 85%) | 5 (Level 5: the growth inhibition rate is greater than 85%) | 5 (Level 5: the growth inhibition rate is greater than 85%) | 0 (Level 0: the growth inhibition rate is less than 5%) | 5 (Level 5: the growth inhibition rate is greater than 85%) | – | – | – | – |
| COc1cnc(OC)n2nc(NS(=O)(=O)c3c(OCC(F)F)cccc3C(F)(F)F)nc12 [penoxsulam, reference compound] | – | – | – | – | – | – | – | – | – | – | – | – | – | – | 1 (Level 1: the growth inhibition rate is equal to or greater than 5% and less than 20%) |
| CSC(=O)[C@@H](C)Oc1nc(F)c(Cl)c(N)c1Cl [Compound 2-70] | 5 (Level 5: the growth inhibition rate is greater than 85%) | – | 5 (Level 5: the growth inhibition rate is greater than 85%) | – | – | 0 (Level 0: the growth inhibition rate is less than 5%) | 5 (Level 5: the growth inhibition rate is greater than 85%) | 5 (Level 5: the growth inhibition rate is greater than 85%) | 5 (Level 5: the growth inhibition rate is greater than 85%) | 0 (Level 0: the growth inhibition rate is less than 5%) | 5 (Level 5: the growth inhibition rate is greater than 85%) | 5 (Level 5: the growth inhibition rate is greater than 85%) | 5 (Level 5: the growth inhibition rate is greater than 85%) | 5 (Level 5: the growth inhibition rate is greater than 85%) | – |
| C[C@@H](Oc1nc(F)c(Cl)c(N)c1Cl)C(=O)SCc1ccccn1 [Compound 2-343] | 5 (Level 5: the growth inhibition rate is greater than 85%) | – | 5 (Level 5: the growth inhibition rate is greater than 85%) | – | – | 0 (Level 0: the growth inhibition rate is less than 5%) | 5 (Level 5: the growth inhibition rate is greater than 85%) | 5 (Level 5: the growth inhibition rate is greater than 85%) | 5 (Level 5: the growth inhibition rate is greater than 85%) | 0 (Level 0: the growth inhibition rate is less than 5%) | 5 (Level 5: the growth inhibition rate is greater than 85%) | 5 (Level 5: the growth inhibition rate is greater than 85%) | 5 (Level 5: the growth inhibition rate is greater than 85%) | 5 (Level 5: the growth inhibition rate is greater than 85%) | – |

From patent US12304890B2, “R-type pyridyloxycarboxylic acid, salt and ester derivative thereof, and preparation method therefor, and herbicidal composition and application thereof” (Qingdao Kingagroot Chemical Compound Co., Ltd., priority 2018, dated 2025)
